Experimental data taken from article PMC6952396, “Structural basis for itraconazole-mediated NPC1 inhibition” (Nature Communications, 2020).
“Also recorded” adds a separate entry of the source.

Assays:
[1] = tested on: T1, human NPC1; assay: P-X cross-linking to purified NPC1; format: binding; settings: for competition with cross-linking of P-X to purified NPC1: 0.3 μM P-X, amphipol-reconstituted NPC1 without detergent, in-gel fluorescence
T1 construct: Strep-tag; made in house; host or cells: HEK-293S GnTI- cells (baculovirus-mediated transduction)
Experimental: To determine the binding site for itraconazole on NPC1, we expressed and purified the NPC1 protein using n-dodecyl β-D-maltoside (DDM) as the detergent. The protein was then incorporated into amphipol A8-35 and the detergent was removed with bio-beads and further separated by gel filtration in phosphate buffered saline (PBS).
For Cross-Linking of P-X to purified NPC1 protein, each reaction contained 0.5 μg of indicated protein, 0.3 μM P-X, and various amounts of itraconazole in a final volume of 100 μL of buffer containing 50 mM Hepes pH7.5 and 150 mM NaCl with or without 0.1% Digitonin (Calbiochem). After incubation for 1 h at 37 °C, the mixture was subjected to UV cross-linking for 10 min and then tagged with Alexa Fluor 532 by means of copper-catalyzed azide-alkyne cycloaddition (click chemistry)[22],[41]. The reactions were carried out by mixing an aliquot of each mixture (50 μL), in a final volume of 58.5 μL, with 3 μL of 1.7 mM Tris[(1-benzyl-1H-1,2,3-triazol-4-yl) methyl] amine (TBTA), 2 μL of 50 mM CuSO4, 1 μL of 50 mM Tris(2-carboxyethyl) phosphine (TCEP), 1.5 μL 10% SDS and 1 μL of 1.25 mM Alexa Fluor 532 azide. The mixture was incubated at room temperature for 1 h.
To visualize the fluorescent-labeled proteins by in-gel fluorescence, 20 μL. aliquots of each sample were mixed with 4x loading dye and subjected to 8% SDS/PAGE, after which the gels were scanned with a Typhoon image scanner (GE Healthcare; filter setting: excitation, […]; emission, 555 nm; high sensitivity). After scanning the gel, the proteins were transferred to nitrocellulose and blotted with rabbit monoclonal anti-NPC1 as indicated in the figure legends.
Human NPC1 protein was expressed and purified as previously described, except for using Strep-tag instead of His-tag. Briefly, the protein was expressed using baculovirus-mediated transduction of mammalian HEK-293S GnTI^− cells (ATCC, CRL-3022). At 48 h post infection, the cells were disrupted by sonication in buffer B, containing 20 mM Hepes, pH7.5, 150 mM NaCl with 1 mM PMSF and 5 μg/mL leupeptin. After low speed centrifugation, the resulting supernatant was incubated in buffer B with 1% (w/v) DDM for 1 h at 4 °C. The lysate was centrifuged again, and the supernatant was loaded onto a Strep-Tactin affinity column (IBA). After washing twice, the protein was eluted in 20 mM Hepes, pH7.5, 150 mM NaCl, 2.5 mM desthiobiotin, 0.02% DDM and concentrated. The concentrated protein was further purified by Superdex 200 increase column (GE Healthcare) in buffer B with 0.02% DDM. The peak fractions were mixed with amphipol A8-35 (Anatrace) at 1:3 (w/w) for 4 h. Detergent was removed with Bio-Beads (Bio-Rad) overnight and further separation on a Superdex 200 increase column in PBS (Sigma-Aldrich). […]

[2] = tested on: T2, wild-type human NPC1; assay: Cross-linking of P-X to NPC1 in intact HEK-293S GnTI- cells overexpressing NPC1; format: cell-based; settings: for inhibition of P-X cross-linking to WT NPC1 in intact cells: 0.3 μM P-X and 3 μM competitor, 1 h at 37 °C
T2 construct: expressed in transfected cells; host or cells: HEK-293S GnTI- cells (ATCC, CRL-3022), PEI transfection
Description: pNPC1 encoding wild-type human NPC1 (amino acids 1–1278) followed sequentially by three tandem copies of the Flag epitope tag ([…]) was constructed into pcDNA3.1. Expression is achieved with the cytomegalovirus (CMV) promoter. Point mutations were introduced into the coding region of pNPC1 by site-directed mutagenesis using the QuikChange II XL Site-Directed Mutagenesis Kit (Agilent Technologies, Santa Clara, CA) and primers which are indicated in Supplementary Table 2. The coding region of each plasmid was sequenced to ensure integrity of the construct.
For cross-linking of P-X to NPC1 and mutants in intact cells, the mammalian HEK-293S GnTI^- cells (ATCC, CRL-3022) overexpressing NPC1 and mutants were set up in 500 mL of freestyle medium with 2% FCS at a density of 2 × 10^6 cells per ml. The cells were transfected with 0.5 mg of the indicated plasmid using PEI (Polysciences) as the transfection agent. After 48 h, cell culture was aliquoted to 10 cm dishes. Each dish received a direct addition of DMSO (final concentration, 0.2%) containing 0.3 μM P-X and 3 μM of various competitor compounds as described in the figure legends. After incubation for 1 h at 37 °C in the dark and without a change of media, the cells were irradiated for 10 min at room temperature under 306-nm UV light (Atlanta Light Bulb Co.) in a UV Stratalinker 2400 apparatus (Stratagene). Cells were subjected to centrifugation at 4000 g for 5 min. The pellet was washed once with PBS and then solubilized with 1 mL of buffer containing 50 mM Hepes pH 7.5, 150 mM NaCl, 1%(wt/vol) n-Dodecyl-β-D-maltopyranoside (DDM, Anatrace). Each solubilized lysate was incubated at room temperature for 1 h, and clarified by centrifugation at 15000 g for 1 min. The supernatant was then transferred to a fresh tube and incubated with anti-FLAG M2 magnetic beads for 1 h. After which the beads were applied to a magnet, washed three times with 1 mL of wash buffer containing 50 mM Hepes pH 7.5, 150 mM NaCl, 0.02% (wt/vol) DDM, and eluted with 100 μL of wash buffer containing 15 μg of 3x FLAG peptide. The purified protein was then tagged with Alexa Fluor 532 using click chemistry as described above. An aliquot of each sample was subjected to 8% SDS/PAGE, and fluorescent-labeled proteins were visualized by in-gel fluorescence as described above. After scanning the gel, the proteins were transferred to nitrocellulose and blotted with mouse monoclonal anti-Flag.

| Structure (SMILES) | competition with cross-linking of P-X to purified NPC1 [1] | inhibition of P-X cross-linking to WT NPC1 in intact cells [2] | also measured |
| --- | --- | --- | --- |
| CCC(C)n1ncn(-c2ccc(N3CCN(c4ccc(OCC5COC(Cn6cncn6)(c6ccc(Cl)cc6Cl)O5)cc4)CC3)c(Br)c2)c1=O (centres unmarked) [I-Br] | binds to NPC1 in a similar manner to the itraconazole mixture; also recorded: competes | – | – |
| C#CCOc1ccc(C(=O)c2ccc(C(=O)OC(C)C(CC)n3ncn(-c4ccc(N5CCN(c6ccc(OCC7COC(Cn8cncn8)(c8ccc(F)cc8F)O7)cc6)CC5)cc4)c3=O)cc2)cc1 (centres unmarked) [P-X] | – | – | cross-linking of P-X to WT NPC1 in intact cells ([2]; 0.3 μM P-X): can easily cross-link; cross-linking of P-X to purified NPC1 ([1]; amphipol-reconstituted NPC1 in PBS without detergent): can cross-link; cross-linking of P-X to purified NPC1 ([1]; protein solubilized in digitonin): not when the protein was solubilized in digitonin |
| CC(=O)N1CCN(c2ccc(OCC3COC(Cn4ccnc4)(c4ccc(Cl)cc4Cl)O3)cc2)CC1 (centres unmarked) [Ketoconazole, ketoconazole] | – | could not inhibit | inhibition of P-X cross-linking to WT NPC1 in intact cells ([2]; listed as ketoconazole): does not |
| CCC(C)n1ncn(-c2ccc(N3CCN(c4ccc(OCC5COC(Cn6cncn6)(c6ccc(Cl)cc6Cl)O5)cc4)CC3)cc2)c1=O (centres unmarked) [Itraconazole mixture, itraconazole] | competed | inhibits this reaction | – |
